Assay results reported in patent publication US10987359B2, “Oxadiazepinone derivatives and methods of treating hepatitis B infections” (priority 2016, dated 2021).

Test system: HBV
Assay: HBV replication inhibition assay (BDNA assay) in HepG2.2.15 cells
Type: cell-based
Settings: Hepatitis B virus, HepG2.2.15, HBV replication assay (BDNA assay), HepG2.2.15 cells; read-out: DNA EC50
Outline: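 HepG2.2.15 cells with stably integrated HBV were treated with serially diluted compounds at 0.5% DMSO for 6 days, with medium and compound refreshed at day 3. Encapsidated HBV DNA from DNase-treated supernatant was quantified by branched DNA assay. EC50 came from % inhibition versus DMSO, fitted non-linearly.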

Structure (SMILES) | EC50 [nM]
CN1OC(CO)Cn2nc3c(c2C1=O)CN(C(=O)Nc1ccc(Cl)c(Cl)c1)CC3 (centres unmarked) [Compound 012, N-(3,4-dichlorophenyl)-4-(hydroxymethyl)-2-methyl-1-oxo-1,4,5,8,9,11-hexahydropyrido[4′,3′:3,4]pyrazolo[5,1-d][1,2,5]oxadiazepine-10(2H)-carboxamide] | 1 to 100
CN1OC(CO)Cn2nc3c(c2C1=O)CN(C(=O)Nc1cc(Cl)c(F)cc1F)CC3 (centres unmarked) [Compound 013, N-(5-chloro-2,4-difluorophenyl)-4-(hydroxymethyl)-2-methyl-1-oxo-1,4,5,8,9,11-hexahydropyrido[4′,3′:3,4]pyrazolo[5,1-d][1,2,5]oxadiazepine-10(2H)-carboxamide] | 1 to 100
CN1OC(CO)Cn2nc3c(c2C1=O)CN(C(=O)Nc1cc(Br)c(F)cc1F)CC3 (centres unmarked) [Compound 014, N-(5-bromo-2,4-difluorophenyl)-4-(hydroxymethyl)-2-methyl-1-oxo-1,4,5,8,9,11-hexahydropyrido[4′,3′:3,4]pyrazolo[5,1-d][1,2,5]oxadiazepine-10(2H)-carboxamide] | 1 to 100
CN1OC(CO)Cn2nc3c(c2C1=O)CN(C(=O)Nc1cc(F)c(F)c(Br)c1)CC3 (centres unmarked) [Compound 015, N-(3-bromo-4,5-difluorophenyl)-4-(hydroxymethyl)-2-methyl-1-oxo-1,4,5,8,9,11-hexahydropyrido[4′,3′:3,4]pyrazolo[5,1-d][1,2,5]oxadiazepine-10(2H)-carboxamide] | 1 to 100
Cc1ccc(C)c(NC(=O)N2CCc3nn4c(c3C2)C(=O)N(C)OC(CO)C4)c1 (centres unmarked) [Compound 016, N-(2,5-dimethylphenyl)-4-(hydroxymethyl)-2-methyl-1-oxo-1,4,5,8,9,11-hexahydropyrido[4′,3′:3,4]pyrazolo[5,1-d][1,2,5]oxadiazepine-10(2H)-carboxamide] | 1 to 100
Cc1ccc(Br)cc1NC(=O)N1CCc2nn3c(c2C1)C(=O)N(C)OC(CO)C3 (centres unmarked) [Compound 017, N-(5-bromo-2-methylphenyl)-4-(hydroxymethyl)-2-methyl-1-oxo-1,4,5,8,9,11-hexahydropyrido[4′,3′:3,4]pyrazolo[5,1-d][1,2,5]oxadiazepine-10(2H)-carboxamide] | 1 to 100
Cc1cc(F)c(Br)cc1NC(=O)N1CCc2nn3c(c2C1)C(=O)N(C)OC(CO)C3 (centres unmarked) [Compound 018, N-(5-bromo-4-fluoro-2-methylphenyl)-4-(hydroxymethyl)-2-methyl-1-oxo-1,4,5,8,9,11-hexahydropyrido[4′,3′:3,4]pyrazolo[5,1-d][1,2,5]oxadiazepine-10(2H)-carboxamide] | 1 to 100
CC1CCCC(NC(=O)N2CCc3nn4c(c3C2)C(=O)N(C)OC(CO)C4)C1 (centres unmarked) [Compound 019, 4-(hydroxymethyl)-2-methyl-N-(3-methylcyclohexyl)-1-oxo-1,4,5,8,9,11-hexahydropyrido[4′,3′:3,4]pyrazolo[5,1-d][1,2,5]oxadiazepine-10(2H)-carboxamide] | 500 to 1000
CN1OC(CO)Cn2nc3c(c2C1=O)CN(C(=O)Nc1cccc(I)c1)CC3 (centres unmarked) [Compound 020, 4-(hydroxymethyl)-N-(3-iodophenyl)-2-methyl-1-oxo-1,4,5,8,9,11-hexahydropyrido[4′,3′:3,4]pyrazolo[5,1-d][1,2,5]oxadiazepine-10(2H)-carboxamide] | 1 to 100
CN1OC(CO)Cn2nc3c(c2C1=O)CN(C(=O)Nc1cccc(C(F)F)c1)CC3 (centres unmarked) [Compound 021, N-(3-(difluoromethyl)phenyl)-4-(hydroxymethyl)-2-methyl-1-oxo-1,4,5,8,9,11-hexahydropyrido[4′,3′:3,4]pyrazolo[5,1-d][1,2,5]oxadiazepine-10(2H)-carboxamide] | 1 to 100
CN1OC(CO)Cn2nc3c(c2C1=O)CN(C(=O)Nc1cc(Cl)c(F)c(C(F)(F)F)c1)CC3 (centres unmarked) [Compound 022, N-(3-chloro-4-fluoro-5-(trifluoromethyl)phenyl)-4-(hydroxymethyl)-2-methyl-1-oxo-1,4,5,8,9,11-hexahydropyrido[4′,3′:3,4]pyrazolo[5,1-d][1,2,5]oxadiazepine-10(2H)-carboxamide] | 1 to 100
CN1OC(CO)Cn2nc3c(c2C1=O)CN(C(=O)Nc1ccc(F)c(Cl)c1Cl)CC3 (centres unmarked) [Compound 023, N-(2,3-dichloro-4-fluorophenyl)-4-(hydroxymethyl)-2-methyl-1-oxo-1,4,5,8,9,11-hexahydropyrido[4′,3′:3,4]pyrazolo[5,1-d][1,2,5]oxadiazepine-10(2H)-carboxamide] | 1 to 100
CN1OC(CO)Cn2nc3c(c2C1=O)CN(C(=O)Nc1ccc(Cl)c(Cl)c1F)CC3 (centres unmarked) [Compound 024, N-(3,4-dichloro-2-fluorophenyl)-4-(hydroxymethyl)-2-methyl-1-oxo-1,4,5,8,9,11-hexahydropyrido[4′,3′:3,4]pyrazolo[5,1-d][1,2,5]oxadiazepine-10(2H)-carboxamide] | 1 to 100
CN1OC(CO)Cn2nc3c(c2C1=O)CN(C(=O)Nc1ccc(Cl)c(C(F)(F)F)c1)CC3 (centres unmarked) [Compound 025, N-(4-chloro-3-(trifluoromethyl)phenyl)-4-(hydroxymethyl)-2-methyl-1-oxo-1,4,5,8,9,11-hexahydropyrido[4′,3′:3,4]pyrazolo[5,1-d][1,2,5]oxadiazepine-10(2H)-carboxamide] | 1 to 100
Cc1ccc(NC(=O)N2CCc3nn4c(c3C2)C(=O)N(C)OC(CO)C4)cc1Cl (centres unmarked) [Compound 026, N-(3-chloro-4-methylphenyl)-4-(hydroxymethyl)-2-methyl-1-oxo-1,4,5,8,9,11-hexahydropyrido[4′,3′:3,4]pyrazolo[5,1-d][1,2,5]oxadiazepine-10(2H)-carboxamide] | 1 to 100
CN1OC(CO)Cn2nc3c(c2C1=O)CN(C(=O)Nc1cc(Cl)c(Cl)cc1F)CC3 (centres unmarked) [Compound 027, N-(4,5-dichloro-2-fluorophenyl)-4-(hydroxymethyl)-2-methyl-1-oxo-1,4,5,8,9,11-hexahydropyrido[4′,3′:3,4]pyrazolo[5,1-d][1,2,5]oxadiazepine-10(2H)-carboxamide] | 1 to 100
CN1OC(CO)Cn2nc3c(c2C1=O)CN(C(=O)Nc1cccc(S(F)(F)(F)(F)F)c1)CC3 (centres unmarked) [Compound 029, 4-(hydroxymethyl)-2-methyl-1-oxo-N-(3-(pentafluoro-16-sulfanyl)phenyl)-1,4,5,8,9,11-hexahydropyrido[4′,3′:3,4]pyrazolo[5,1-d][1,2,5]oxadiazepine-10(2H)-carboxamide] | 1 to 100
CN1OC(CO)Cn2nc3c(c2C1=O)CN(C(=O)Nc1cccc(Cl)c1)CC3 (centres unmarked) [Compound 030, N-(3-chlorophenyl)-4-(hydroxymethyl)-2-methyl-1-oxo-1,4,5,8,9,11-hexahydropyrido[4′,3′:3,4]pyrazolo[5,1-d][1,2,5]oxadiazepine-10(2H)-carboxamide] | 1 to 100
CN1OC(CF)Cn2nc3c(c2C1=O)CN(C(=O)Nc1cccc(C(F)(F)F)c1)CC3 (centres unmarked) [Compound 036, 4-(fluoromethyl)-2-methyl-1-oxo-N-(3-(trifluoromethyl)phenyl)-1,4,5,8,9,11-hexahydropyrido[4′,3′:3,4]pyrazolo[5,1-d][1,2,5]oxadiazepine-10(2H)-carboxamide] | 1 to 100
CN1OC(CO)Cn2nc3c(c2C1=O)CN(C(=O)N(C)c1ccc(F)c(Cl)c1)CC3 (centres unmarked) [Compound 045, N-(3-chloro-4-fluorophenyl)-4-(hydroxymethyl)-N,2-dimethyl-1-oxo-1,4,5,8,9,11-hexahydropyrido[4′,3′:3,4]pyrazolo[5,1-d][1,2,5]oxadiazepine-10(2H)-carboxamide] | 100 to 500
